Laboratory results: patent EP0726261A1, “Herbidical 1,2,4 thiadiazoles” (American Cyanamid Company, priority 1995, dated 1996)

Key:
Assay type in all cases: in vivo
Hordeum vulgare [1] = assay: Preemergence herbicidal activity (Example 67); parameters: herbicide rating, HORVW: scale not given here; settings: pre, 800 g/ha; for herbicide rating, HORVW: rated about 1-3 weeks after treatment
Protocol: (§1) Herbicidal evaluation of compounds of the invention is conducted on the following plant species:
(§2) The soil is a prepared horticultural substrate containing 30% peat, 20% volcanic clay, 30% bark residues and 20% polyamide/styromull in a 1:3 mixture with loamy sand. Test solutions are prepared by dissolving the test compound in acetone containing 0.5% of an alkylphenol/ethylene oxide condensate under the trademark, TRITON® X-155, and diluting with water as needed. The test solutions are applied as a spray to the 3-6 week old seedling plants at dose rates corresponding to 800g/ha in a volume equivalent to 400 L/ha. A pneumatic spraying device employing a Teejet nozzle SS 8002E operating at 3 bar is used for a predetermined time. After spraying, the treated plants are placed on greenhouse benches and cared for in a manner commensurate with conventional greenhouse practice. After 10-21 days, the treated plants are evaluated and rated according to the rating system provided below.
(§3) The soil surface is then sprayed with test solutions as described in the postemergence evaluation hereinabove. After spraying, the treated cups are placed on greenhouse benches and cared for in the manner commensurate with conventional greenhouse practice. About 1-3 weeks after treatment the cups are evaluated and rated according to the rating system provided hereinabove.

Abutilon theophrasti [2] = assay: Postemergence herbicidal activity (Example 67); settings: pos, 800 g/ha; for herbicide rating, ABUTH: rated after 10-21 days
Protocol: as §1, §2

Hordeum vulgare [3] = assay: Postemergence herbicidal activity (Example 67); settings: pos, 800 g/ha; for herbicide rating, HORVW: rated after 10-21 days
Protocol: as §1, §2

Triticum aestivum [4] = assay: Postemergence herbicidal activity (Example 67); settings: pos, 800 g/ha; for herbicide rating, TRZAW: rated after 10-21 days
Protocol: as §1, §2

Setaria viridis [5] = assay: Postemergence herbicidal activity (Example 67); settings: pos, 800 g/ha; for herbicide rating, SETVI: rated after 10-21 days
Protocol: as §1, §2

Helianthus annuus [6] = assay: Postemergence herbicidal activity (Example 67); settings: pos, 800 g/ha; for herbicide rating, HELAN: rated after 10-21 days
Protocol: as §1, §2

Veronica persica [7] = assay: Postemergence herbicidal activity (Example 67); settings: pos, 800 g/ha; for herbicide rating, VERPE: rated after 10-21 days
Protocol: as §1, §2

Amaranthus retroflexus [8] = assay: Postemergence herbicidal activity (Example 67); settings: pos, 800 g/ha; for herbicide rating, AMARE: rated after 10-21 days
Protocol: as §1, §2

Ipomoea hederacea [9] = assay: Postemergence herbicidal activity (Example 67); settings: pos, 800 g/ha; for herbicide rating, IPOHE: rated after 10-21 days
Protocol: as §1, §2

Chenopodium album [10] = assay: Postemergence herbicidal activity (Example 67); settings: pos, 800 g/ha; for herbicide rating, CHEAL: rated after 10-21 days
Protocol: as §1, §2

Alopecurus myosuroides [11] = assay: Postemergence herbicidal activity (Example 67); settings: pos, 800 g/ha; for herbicide rating, ALOMY: rated after 10-21 days
Protocol: as §1, §2

Zea mays [12] = assay: Postemergence herbicidal activity (Example 67); settings: pos, 800 g/ha; for herbicide rating, ZEAMX: rated after 10-21 days
Protocol: as §1, §2

Galium aparine [13] = assay: Postemergence herbicidal activity (Example 67); settings: pos, 800 g/ha; for herbicide rating, GALAP: rated after 10-21 days
Protocol: as §1, §2

Abutilon theophrasti [14] = assay: Preemergence herbicidal activity (Example 67); settings: pre, 800 g/ha; for herbicide rating, ABUTH: rated about 1-3 weeks after treatment
Protocol: as §1, §2, §3

Helianthus annuus [15] = assay: Preemergence herbicidal activity (Example 67); settings: pre, 800 g/ha; for herbicide rating, HELAN: rated about 1-3 weeks after treatment
Protocol: as §1, §2, §3

Veronica persica [16] = assay: Preemergence herbicidal activity (Example 67); settings: pre, 800 g/ha; for herbicide rating, VERPE: rated about 1-3 weeks after treatment
Protocol: as §1, §2, §3

Amaranthus retroflexus [17] = assay: Preemergence herbicidal activity (Example 67); settings: pre, 800 g/ha; for herbicide rating, AMARE: rated about 1-3 weeks after treatment
Protocol: as §1, §2, §3

Ipomoea hederacea [18] = assay: Preemergence herbicidal activity (Example 67); settings: pre, 800 g/ha; for herbicide rating, IPOHE: rated about 1-3 weeks after treatment
Protocol: as §1, §2, §3

Chenopodium album [19] = assay: Preemergence herbicidal activity (Example 67); settings: pre, 800 g/ha; for herbicide rating, CHEAL: rated about 1-3 weeks after treatment
Protocol: as §1, §2, §3

Zea mays [20] = assay: Preemergence herbicidal activity (Example 67); settings: pre, 800 g/ha; for herbicide rating, ZEAMX: rated about 1-3 weeks after treatment
Protocol: as §1, §2, §3

Galium aparine [21] = assay: Preemergence herbicidal activity (Example 67); settings: pre, 800 g/ha; for herbicide rating, GALAP: rated about 1-3 weeks after treatment
Protocol: as §1, §2, §3

Setaria viridis [22] = assay: Preemergence herbicidal activity (Example 67); parameters: herbicide rating, SETVI: scale not given here; settings: pre, 800 g/ha; for herbicide rating, SETVI: rated about 1-3 weeks after treatment
Protocol: as §1, §2, §3

Alopecurus myosuroides [23] = assay: Preemergence herbicidal activity (Example 67); parameters: herbicide rating, ALOMY: scale not given here; settings: pre, 800 g/ha; for herbicide rating, ALOMY: rated about 1-3 weeks after treatment
Protocol: as §1, §2, §3

Triticum aestivum [24] = assay: Preemergence herbicidal activity (Example 67); parameters: herbicide rating, TRZAW: scale not given here; settings: pre, 800 g/ha; for herbicide rating, TRZAW: rated about 1-3 weeks after treatment
Protocol: as §1, §2, §3

How did the “HOR VW rating” value (Hordeum vulgare [1]) turn out when `C[C@H](NC(=O)c1nsc(-c2ccc(F)cc2)n1)c1ccccc1` [Example 40, (S)-5-(4-Fluorophenyl)-[1,2,4]thiadiazole-3-carboxylic acid, 1-(phenylethyl)amide] was run?
Its value is 0.

And the “ABU TH rating” value (Abutilon theophrasti [2])?
The value was 8 (91-99%).

And the “HOR VW rating” value (Hordeum vulgare [3])?
The value was 6 (65-79%).

What about the “TRZ AW rating” value (Triticum aestivum [4]) of the same compound?
The value was 4 (30-44%).

And the “SET VI rating” value (Setaria viridis [5])?
Its value is 9 (100% effect).

What about the “HEL AN rating” value (Helianthus annuus [6]) of the same compound?
The value was 9 (100% effect).

And the “VER PE rating” value (Veronica persica [7])?
Its value is 8 (91-99%).

What about the “AMA RE rating” value (Amaranthus retroflexus [8]) of the same compound?
Its value is 8 (91-99%).

And the “IPO HE rating” value (Ipomoea hederacea [9])?
Its value is 8 (91-99%).

And the “CHE AL rating” value (Chenopodium album [10])?
Its value is 8 (91-99%).

And the “ALO MY rating” value (Alopecurus myosuroides [11])?
Its value is 5 (45-64%).

And the “ZEA MX rating” value (Zea mays [12])?
The value was 5 (45-64%).

What about the “GAL AP rating” value (Galium aparine [13]) of the same compound?
Its value is 8 (91-99%).

And the “ABU TH rating” value (Abutilon theophrasti [14])?
Its value is 8 (91-99%).

And the “HEL AN rating” value (Helianthus annuus [15])?
The value was 4 (30-44%).

What about the “VER PE rating” value (Veronica persica [16]) of the same compound?
The value was 5 (45-64%).

What about the “AMA RE rating” value (Amaranthus retroflexus [17]) of the same compound?
The value was 0.

What about the “IPO HE rating” value (Ipomoea hederacea [18]) of the same compound?
Its value is 0.

And the “CHE AL rating” value (Chenopodium album [19])?
Its value is 4 (30-44%).

And the “ZEA MX rating” value (Zea mays [20])?
Its value is 0.

And the “GAL AP rating” value (Galium aparine [21])?
The value was 0.

What about the “SET VI rating” value (Setaria viridis [22]) of the same compound?
Its value is 4 (30-44%).

What about the “ALO MY rating” value (Alopecurus myosuroides [23]) of the same compound?
Its value is 0.

What about the “TRZ AW rating” value (Triticum aestivum [24]) of the same compound?
The value was 0.

What does the source list for `COc1ccc(-c2nsc(C(=O)NC(C)c3ccc(C)s3)n2)cc1` (racemic) [Example 37]?
herbicide rating, HORVW (Hordeum vulgare [1]): 0; herbicide rating, ABUTH (Abutilon theophrasti [2]): 0; herbicide rating, HORVW (Hordeum vulgare [3]): 2 (6-15%); herbicide rating, TRZAW (Triticum aestivum [4]): 3 (16-29%); herbicide rating, SETVI (Setaria viridis [5]): 4 (30-44%); herbicide rating, HELAN (Helianthus annuus [6]): 0; herbicide rating, VERPE (Veronica persica [7]): 0; herbicide rating, AMARE (Amaranthus retroflexus [8]): 0; herbicide rating, IPOHE (Ipomoea hederacea [9]): 1 (1-5%); herbicide rating, CHEAL (Chenopodium album [10]): 3 (16-29%); herbicide rating, ALOMY (Alopecurus myosuroides [11]): 2 (6-15%); herbicide rating, ZEAMX (Zea mays [12]): 0; herbicide rating, GALAP (Galium aparine [13]): 0; herbicide rating, ABUTH (Abutilon theophrasti [14]): 0; herbicide rating, HELAN (Helianthus annuus [15]): 0; herbicide rating, VERPE (Veronica persica [16]): 0; herbicide rating, AMARE (Amaranthus retroflexus [17]): 0; herbicide rating, IPOHE (Ipomoea hederacea [18]): 0; herbicide rating, CHEAL (Chenopodium album [19]): 6 (65-79%); herbicide rating, ZEAMX (Zea mays [20]): 0; herbicide rating, GALAP (Galium aparine [21]): 0; herbicide rating, SETVI (Setaria viridis [22]): 0; herbicide rating, ALOMY (Alopecurus myosuroides [23]): 0; herbicide rating, TRZAW (Triticum aestivum [24]): 0

Which results are given for `COc1ccc(-c2nsc(C(=O)NC(C)c3cccs3)n2)cc1` (racemic) [Example 35]?
herbicide rating, HORVW (Hordeum vulgare [1]): 0; herbicide rating, ABUTH (Abutilon theophrasti [2]): 4 (30-44%); herbicide rating, HORVW (Hordeum vulgare [3]): 3 (16-29%); herbicide rating, TRZAW (Triticum aestivum [4]): 3 (16-29%); herbicide rating, SETVI (Setaria viridis [5]): 8 (91-99%); herbicide rating, HELAN (Helianthus annuus [6]): 5 (45-64%); herbicide rating, VERPE (Veronica persica [7]): 2 (6-15%); herbicide rating, AMARE (Amaranthus retroflexus [8]): 3 (16-29%); herbicide rating, IPOHE (Ipomoea hederacea [9]): 4 (30-44%); herbicide rating, CHEAL (Chenopodium album [10]): 5 (45-64%); herbicide rating, ALOMY (Alopecurus myosuroides [11]): 3 (16-29%); herbicide rating, ZEAMX (Zea mays [12]): 3 (16-29%); herbicide rating, GALAP (Galium aparine [13]): 4 (30-44%); herbicide rating, ABUTH (Abutilon theophrasti [14]): 0; herbicide rating, HELAN (Helianthus annuus [15]): 3 (16-29%); herbicide rating, VERPE (Veronica persica [16]): 4 (30-44%); herbicide rating, AMARE (Amaranthus retroflexus [17]): 0; herbicide rating, IPOHE (Ipomoea hederacea [18]): 0; herbicide rating, CHEAL (Chenopodium album [19]): 5 (45-64%); herbicide rating, ZEAMX (Zea mays [20]): 0; herbicide rating, GALAP (Galium aparine [21]): 4 (30-44%); herbicide rating, SETVI (Setaria viridis [22]): 0; herbicide rating, ALOMY (Alopecurus myosuroides [23]): 0; herbicide rating, TRZAW (Triticum aestivum [24]): 0

With `O=C(Nc1cccc(F)c1)c1nsc(-c2cccc(C(F)(F)F)c2)n1` [Example 65] as the compound, how does the “HOR VW rating” value (Hordeum vulgare [1]) read?
Its value is 0.

And the “ABU TH rating” value (Abutilon theophrasti [2])?
The value was 0.

And the “HOR VW rating” value (Hordeum vulgare [3])?
The value was 1 (1-5%).

And the “TRZ AW rating” value (Triticum aestivum [4])?
The value was 3 (16-29%).

And the “SET VI rating” value (Setaria viridis [5])?
The value was 0.

What about the “HEL AN rating” value (Helianthus annuus [6]) of the same compound?
Its value is 0.

What about the “VER PE rating” value (Veronica persica [7]) of the same compound?
The value was 0.

What about the “AMA RE rating” value (Amaranthus retroflexus [8]) of the same compound?
Its value is 0.

What about the “IPO HE rating” value (Ipomoea hederacea [9]) of the same compound?
Its value is 1 (1-5%).

What about the “CHE AL rating” value (Chenopodium album [10]) of the same compound?
Its value is 0.

And the “ALO MY rating” value (Alopecurus myosuroides [11])?
Its value is 1 (1-5%).

And the “ZEA MX rating” value (Zea mays [12])?
Its value is 0.

And the “GAL AP rating” value (Galium aparine [13])?
Its value is 0.

What about the “ABU TH rating” value (Abutilon theophrasti [14]) of the same compound?
Its value is 3 (16-29%).

And the “HEL AN rating” value (Helianthus annuus [15])?
The value was 0.

And the “VER PE rating” value (Veronica persica [16])?
Its value is 0.

And the “AMA RE rating” value (Amaranthus retroflexus [17])?
Its value is 0.

And the “IPO HE rating” value (Ipomoea hederacea [18])?
The value was 3 (16-29%).

What about the “CHE AL rating” value (Chenopodium album [19]) of the same compound?
The value was 1 (1-5%).

And the “ZEA MX rating” value (Zea mays [20])?
Its value is 0.

What about the “GAL AP rating” value (Galium aparine [21]) of the same compound?
The value was 0.

What about the “SET VI rating” value (Setaria viridis [22]) of the same compound?
Its value is 0.

And the “ALO MY rating” value (Alopecurus myosuroides [23])?
The value was 4 (30-44%).

What about the “TRZ AW rating” value (Triticum aestivum [24]) of the same compound?
The value was 2 (6-15%).
